The values below come from patent publication US9694016B2 (Novartis AG, priority 2013, dated 2017).

The target in the first experiment is b-Raf (V600E) (Homo sapiens (Human), UniProt P15056, V600E). Conditions: read-out: b-Raf IC-50; AlphaScreen, 60 min pre-incubation, 3 hours reaction. In general terms: Bead proximity is the source of the signal in Alpha formats.
Chain of b-Raf (V600E) (P15056 whole entry V600E): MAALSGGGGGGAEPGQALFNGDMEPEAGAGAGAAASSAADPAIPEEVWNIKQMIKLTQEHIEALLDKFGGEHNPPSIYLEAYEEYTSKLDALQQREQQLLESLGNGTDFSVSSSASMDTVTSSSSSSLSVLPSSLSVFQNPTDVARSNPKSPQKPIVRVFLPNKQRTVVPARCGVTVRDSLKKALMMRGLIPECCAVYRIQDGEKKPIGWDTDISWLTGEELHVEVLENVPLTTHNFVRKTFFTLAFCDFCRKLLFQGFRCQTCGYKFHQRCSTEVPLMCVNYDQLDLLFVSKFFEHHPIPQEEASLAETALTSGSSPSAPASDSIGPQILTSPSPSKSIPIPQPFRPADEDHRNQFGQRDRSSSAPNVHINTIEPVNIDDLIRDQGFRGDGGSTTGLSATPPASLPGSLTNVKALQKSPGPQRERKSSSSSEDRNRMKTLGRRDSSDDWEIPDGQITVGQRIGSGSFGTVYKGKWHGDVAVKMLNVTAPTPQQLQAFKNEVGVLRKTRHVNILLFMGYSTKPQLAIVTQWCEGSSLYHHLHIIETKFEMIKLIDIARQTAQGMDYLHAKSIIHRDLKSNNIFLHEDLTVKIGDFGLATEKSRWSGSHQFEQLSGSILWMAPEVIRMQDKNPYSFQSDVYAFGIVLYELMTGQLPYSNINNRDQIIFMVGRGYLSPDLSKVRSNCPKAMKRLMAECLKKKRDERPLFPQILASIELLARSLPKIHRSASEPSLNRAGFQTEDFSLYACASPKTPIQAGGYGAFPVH
Regarding `Cc1ccc(NC(=O)c2ccnc(C(C)(F)F)c2)cc1-c1cc(N2CCOCC2)c(OCCO)nn1` [Example 587, 2-(1,1-difluoroethyl)-N-(3-(6-(2-hydroxyethoxy)-5-morpholinopyridazin-3-yl)-4-methylphenyl)isonicotinamide], the IC50 turned out to be 1.1 nM.
`CCN1CCN(c2cc(C(=O)Nc3ccc(C)c(-c4cc(N5CCOCC5)c(=O)n(C)n4)c3)cc(C(F)(F)F)c2)CC1` [Example 649, 3-(4-ethylpiperazin-1-yl)-N-(4-methyl-3-(1-methyl-5-morpholino-6-oxo-1,6-dihydropyridazin-3-yl)phenyl)-5-(trifluoromethyl)benzamide]: the IC50 is 4.6 nM.
Same read-out and setting: under `Cc1ccc(NC(=O)c2ccnc(C(C)(C)F)c2)cc1-c1cc(N2CCOCC2)c(=O)n(C)n1` [Example 654, 2-(2-fluoropropan-2-yl)-N-(4-methyl-3-(1-methyl-5-morpholino-6-oxo-1,6-dihydropyridazin-3-yl)phenyl)isonicotinamide] stands 1.7 nM; under `CCOc1ncc(-c2cc(NC(=O)c3cc(CN(C)C)cc(C(F)(F)F)c3)cnc2C)nc1N1CCOCC1` [Example 545, 3-((dimethylamino)methyl)-N-(5-(5-ethoxy-6-morpholinopyrazin-2-yl)-6-methylpyridin-3-yl)-5-(trifluoromethyl)benzamide], 16.5 nM.
The same measure, in the same setting: under `Cc1ccc(NC(=O)c2ccnc(C(C)(F)F)c2)cc1-c1cc(N2CCOC(C)(C)C2)c(=O)n(C)n1` [Example 667, 2-(1,1-difluoroethyl)-N-(3-(5-(2,2-dimethylmorpholino)-1-methyl-6-oxo-1,6-dihydropyridazin-3-yl)-4-methylphenyl)isonicotinamide] stands 3.4 nM; under `CCC(F)(F)c1cc(C(=O)Nc2cnc(C)c(-c3cc(N4CCOCC4)n4nccc4n3)c2)ccn1` [Example 800, 2-(1,1-difluoropropyl)-N-(6-methyl-5-(7-morpholinopyrazolo[1,5-a]pyrimidin-5-yl)pyridin-3-yl)isonicotinamide], 2 nM; under `Cc1ccc(NC(=O)c2ccnc(C(C)(F)F)c2)cc1-c1cc(N2CCOCC2)nc(N(C)C)n1` [Example 756, 2-(1,1-difluoroethyl)-N-(3-(2-(dimethylamino)-6-morpholinopyrimidin-4-yl)-4-methylphenyl)isonicotinamide], 4.2 nM.
As to `COc1nnc(-c2cc(NC(=O)c3cccc(S(C)(=O)=O)c3)ccc2C)cc1N1CCOCC1` [Example 553, N-(3-(6-methoxy-5-morpholinopyridazin-3-yl)-4-methylphenyl)-3-(methylsulfonyl)benzamide], the IC50 came to 1.2 nM.
Same read-out and setting: under `Cc1ccc(C(=O)Nc2cccc(C(F)F)c2)cc1-c1cc(N2CCOCC2)n(C)c(=O)c1` [Example 514, N-(3-(difluoromethyl)phenyl)-4-methyl-3-(1-methyl-6-morpholino-2-oxo-1,2-dihydropyridin-4-yl)benzamide] stands 1.1 nM; under `CCNc1nc(-c2cc(NC(=O)c3cc(C(F)(F)F)c(=O)n(CC)c3)cnc2C)cc(N2CCOCC2)n1` [Example 720, 1-ethyl-N-(5-(2-(ethylamino)-6-morpholinopyrimidin-4-yl)-6-methylpyridin-3-yl)-6-oxo-5-(trifluoromethyl)-1,6-dihydropyridine-3-carboxamide], 23.2 nM; under `Cc1ncc(NC(=O)c2cccc(S(C)(=O)=O)c2)cc1-c1cc(N2CCOCC2)n(C)c(=O)c1` [Example 509, N-(1′,2-dimethyl-6′-morpholino-2′-oxo-1′,2′-dihydro-[3,4′-bipyridin]-5-yl)-3-(methylsulfonyl)benzamide], 17.3 nM.
The same measure, in the same setting: under `CCC(F)(F)c1cc(C(=O)Nc2ccc(C)c(-c3cc(N4CCOCC4)c(OCCO)nn3)c2)ccn1` [Example 589, 2-(1,1-difluoropropyl)-N-(3-(6-(2-hydroxyethoxy)-5-morpholinopyridazin-3-yl)-4-methylphenyl)isonicotinamide] stands 1.5 nM; under `COc1nnc(-c2cc(NC(=O)c3cnnc(C(F)(F)F)c3)ccc2C)cc1N1CCOCC1` [Example 551, N-(3-(6-methoxy-5-morpholinopyridazin-3-yl)-4-methylphenyl)-6-(trifluoromethyl)pyridazine-4-carboxamide], 1.2 nM; under `Cc1ccc(NC(=O)c2ccnc(C(C)(C)O)c2)cc1-c1cc(N2CCOCC2)c(OC2CCOCC2)nn1` [Example 581, 2-(2-hydroxypropan-2-yl)-N-(4-methyl-3-(5-morpholino-6-((tetrahydro-2H-pyran-4-yl)oxy)pyridazin-3-yl)phenyl)isonicotinamide], 2.2 nM.
The same measure, in the same setting: under `Cc1ccc(NC(=O)c2ccnc(C(C)(C)C#N)c2)cc1-c1cc(N2CCOCC2)nc(NC2(CO)CCOCC2)n1` [Example 754, 2-(2-cyanopropan-2-yl)-N-(3-(2-((4-(hydroxymethyl)tetrahydro-2H-pyran-4-yl)amino)-6-morpholinopyrimidin-4-yl)-4-methylphenyl)isonicotinamide] stands 3.4 nM; under `Cc1ncc(NC(=O)c2cccc(C(F)(F)F)c2)cc1-c1cc(N2CCOCC2)nc(N[C@@H](C)CO)n1` [Example 745, (S)—N-(5-(2-((1-hydroxypropan-2-yl)amino)-6-morpholinopyrimidin-4-yl)-6-methylpyridin-3-yl)-3-(trifluoromethyl)benzamide], 3.6 nM.

The same experiment, now with this note: read-out: b-Raf IC-50; AlphaScreen, 60 min pre-incubation, reaction 3 hours at room temperature.
Turning to `Cc1ccc(NC(=O)c2ccnc(C(C)(C)C#N)c2)cc1-c1nc(N2CCOCC2)c2c(cnn2C)n1` [Example 861, 2-(2-cyanopropan-2-yl)-N-(4-methyl-3-(1-methyl-7-morpholino-1H-pyrazolo[4,3-d]pyrimidin-5-yl)phenyl)isonicotinamide], the IC50 came out at 2.5 nM.
As to `Cc1ccc(NC(=O)c2cccc(C(F)F)c2)cc1-c1cc(NCCO)nc(N2CCOCC2)c1` [Example 1036, 3-(difluoromethyl)-N-(3-(2-((2-hydroxyethyl)amino)-6-morpholinopyridin-4-yl)-4-methylphenyl)benzamide], the IC50 is 0.54 nM.
On the same count and under the same terms, under `Cc1ncc(NC(=O)c2cc(C(C)(C)C#N)ccn2)cc1-c1cnc(OC(F)F)c(N2CCOCC2)c1` [Example 981, 4-(2-cyanopropan-2-yl)-N-(6′-(difluoromethoxy)-2-methyl-5′-morpholino-[3,3′-bipyridin]-5-yl)picolinamide] stands 7.65 nM; under `Cc1ncc(NC(=O)c2cccc(C(O)C(F)(F)F)c2)cc1-c1cnc(OC2CCOCC2)c(N2CCOCC2)c1` (stereo not shown) [Example 977, N-(2-methyl-5′-morpholino-6′-((tetrahydro-2H-pyran-4-yl)oxy)[3,3′-bipyridin]-5-yl)-3-(2,2,2-trifluoro-1-hydroxyethyl)benzamide], 4.21 nM.
Still for that read-out and setting: under `Cc1ccc(NC(=O)c2ccnc(C(C)(C)F)c2)cc1-c1cc(N2CCOCC2)c(S(C)(=O)=O)nn1` [Example 928, 2-(2-fluoropropan-2-yl)-N-(4-methyl-3-(6-(methylsulfonyl)-5-morpholinopyridazin-3-yl)phenyl)isonicotinamide] stands 1.9 nM.
Still for that read-out and setting: under `Cc1ncc(NC(=O)c2ccnc(S(C)(=O)=O)c2)cc1-c1cc(NCCO)nc(N2CCOCC2)c1` [Example 1043, N-(2′-((2-hydroxyethyl)amino)-2-methyl-6′-morpholino-[3,4′-bipyridin]-5-yl)-2-(methylsulfonyl)isonicotinamide] stands 22.8 nM; under `Cc1ccc(NC(=O)c2ccnc(C(F)(F)F)c2)cc1-c1cc(NCC2CCOC2)nc(N2CCOCC2)c1` (stereo not shown) [Example 1055, N-(4-methyl-3-(2-morpholino-6-(((tetrahydrofuran-3-yl)methyl)amino)pyridin-4-yl)phenyl)-2-(trifluoromethyl)isonicotinamide], 1.17 nM.
For `Cc1ncc(NC(=O)c2ccnc(C(C)(C)O)c2)cc1-c1cc(N2CCOCC2)c2nccn2c1` [Example 878, 2-(2-hydroxypropan-2-yl)-N-(6-methyl-5-(8-morpholinoimidazo[1,2-a]pyridin-6-yl)pyridin-3-yl)isonicotinamide], the IC50 came out at 100 nM.

The same experiment, now with this note: read-out: b-Raf IC-50; Table 2; AlphaScreen, 3 hours reaction.
`Cn1cc(-c2cc(NC(=O)c3ccnc(C(F)(F)F)c3)ccc2Cl)cc(N2CCOCC2)c1=O` [Example 413, N-(4-chloro-3-(1-methyl-5-morpholino-6-oxo-1,6-dihydropyridin-3-yl)phenyl)-2-(trifluoromethyl)isonicotinamide]: the IC50 came to 0.4 nM.
The same measure, in the same setting: under `Cc1ccc(NC(=O)c2cccc(C(F)(F)F)c2)cc1-c1cc(N2CCOCC2)nc(OCCO)n1` [Example 40, N-(3-(2-(2-hydroxyethoxy)-6-morpholinopyrimidin-4-yl)-4-methylphenyl)-3-(trifluoromethyl)benzamide] stands 0.8 nM; under `CC(F)(F)c1cc(C(=O)Nc2c[nH]c(=O)c(-c3ccnc(N4CCOCC4)c3)c2)ccn1` [Example 89, 2-(1,1-difluoroethyl)-N-(2′-morpholino-2-oxo-1,2-dihydro-[3,4′-bipyridin]-5-yl)isonicotinamide], 25000 nM.
Regarding `CCn1cc(C(=O)Nc2ccc(C)c(-c3cc(N4CCOCC4)c(=O)n(C)c3)c2)c(C)n1` [Example 365, 1-ethyl-3-methyl-N-(4-methyl-3-(1-methyl-5-morpholino-6-oxo-1,6-dihydropyridin-3-yl)phenyl)-1H-pyrazole-4-carboxamide], the IC50 is 85.9 nM.
Still for that read-out and setting: under `CCN1CCN(c2cc(C(=O)Nc3ccc(C)c(-c4cc(N5CCOCC5)nc(N5CCOCC5)n4)c3)cc(C(F)(F)F)c2)CC1` [Example 21, N-(3-(2,6-dimorpholinopyrimidin-4-yl)-4-methylphenyl)-3-(4-ethylpiperazin-1-yl)-5-(trifluoromethyl)benzamide] stands 4 nM; under `Cc1ncc(NC(=O)c2cccc(C(F)(F)F)c2)cc1-c1cnc(O[C@@H]2CCOC2)c(N2CCOCC2)c1` [Example 311, (R)—N-(2-methyl-5′-morpholino-6′-((tetrahydrofuran-3-yl)oxy)-[3,3′-bipyridin]-5-yl)-3-(trifluoromethyl)benzamide], 2.4 nM.
On the same count and under the same terms, under `CCOc1ncc(-c2cc(NC(=O)c3ccnc(C(C)C)c3)cnc2C)cc1N1CCOCC1` [Example 252, N-(6′-ethoxy-2-methyl-5′-morpholino-[3,3′-bipyridin]-5-yl)-2-isopropylisonicotinamide] stands 3.1 nM.
